The target in data set [1] is T1, S1PR2 (Homo sapiens, UniProt O95136). The settings on record: Bioorg. Med. Chem. 21: 5373-5382 (2013); cited from earlier work.
Target sequence in this assay (O95136 whole entry): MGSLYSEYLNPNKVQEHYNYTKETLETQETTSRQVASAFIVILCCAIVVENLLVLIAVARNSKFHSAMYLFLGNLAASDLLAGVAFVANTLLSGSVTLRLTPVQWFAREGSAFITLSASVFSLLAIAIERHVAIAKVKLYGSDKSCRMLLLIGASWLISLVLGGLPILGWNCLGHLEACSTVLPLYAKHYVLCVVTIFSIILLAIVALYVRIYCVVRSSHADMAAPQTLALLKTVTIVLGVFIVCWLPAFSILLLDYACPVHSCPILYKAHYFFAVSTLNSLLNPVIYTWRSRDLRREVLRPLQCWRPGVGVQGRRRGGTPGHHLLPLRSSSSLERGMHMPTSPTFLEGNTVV
The conditions of data set [2]: cited from earlier work.
Another data set has as its target T2, S1P2 (Homo sapiens, UniProt O95136).
T2 construct: Flag; expressed in transfected cells; host or cells: Chinese hamster ovary (CHO) cells, doxycycline-inducible (CHO-S1P2-FL / CHO-S1PR2 FL)
The data set can be described thus: GLISA RhoA activation - antagonist assay. It counts as cell-based. The conditions noted are these: CHO-S1P2-FL cells; for inhibition at 1 µM: 1 μM compound; for IC50: 1 hour compound incubation, then for 5 min. The method, boiled down:
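Doxycycline-induced CHO cells expressing Flag-tagged S1P2, serum-starved, pretreated 1 h at 37 °C with compound (1 nM-10 μM), then washed and stimulated 5 min with […]. Protein-normalized lysates captured on GTP-RhoA plates; active RhoA quantified by G-LISA.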

Data set [3] deals with T1, S1PR2. The experiment in a line: FLIPR calcium activation - antagonist assay. The arrangement: Flag; expressed in transfected cells; host or cells: Chinese hamster ovary (CHO) cells, doxycycline-inducible (CHO-S1P2-FL / CHO-S1PR2 FL). It is filed as cell-based. The conditions noted are these: CHO-S1PR2 FL cells, 1 hour compound incubation. The protocol: FLIPR Calcium Activation—Antagonist Assay
An assay was performed using Fluo-4 NW Calcium activation kit (#F36206) purchased from Molecular Probes/Life Technologies, Grand Island, NY. Calcium assay was performed according to the manufacturer's instructions. Briefly, CHO-S1PR2 FL cells (5×10^4 cells (for 384 well plate) or 7.5×10^4 cells (for 96 well plate)) were seeded 24 hours prior to experiment in serum free IMDM media supplemented with 0.1% fatty acid free BSA/PBS (SFM). After starvation, cells were stimulated with the compounds described herein (1 nM-10 μM) for 1 hour in SFM at room temperature. Cells were then washed with PBS and prepared for Calcium induction assay as instructed in Fluo-4 NW Calcium activation kit protocol. For calcium induction, 100 nM […] or 1 μM ATP were added in ligand plate places in the Hamamatsu FDSS6000 drug screening system. Ligand was added in 15 seconds intervals for 15 min and signal ratio of […] was measured using the Hamamatsu FDSS6000 instrument.
Target sequence in this assay (O95136 whole entry, species assumed): as the sequence (O95136 whole entry) above

A further data set relates to bile duct ligated mice. The experiment in a line: Bile duct ligation (BDL) liver fibrosis model. It is filed as in vivo, mouse. The settings on record: 30 mg/kg daily. The protocol: Six to eight-week-old mice were subjected to bile duct ligation to induce mouse cirrhotic liver injury model. To perform BDL, mice were subjected to a mid-abdominal incision, under general anesthesia. The common bile duct was ligated in two adjacent positions approximately 1 cm from the porta hepatis. The duct was then severed by incision between the two sites of ligation. One day after surgery, mice were administered compounds described herein at […] once daily. Drug delivery was performed by gavage in 0.5% methylcellulose with 0.1 Tween 80. Eight days after BDL surgery mice were harvested, though the harvesting can be performed at any suitable period of time, including 14 days after BDL surgery. Blood serum was collected for liver enzyme analysis and livers were harvested and were either snap frozen or fixed with 4% PFA and cryopreserved in OCT for sectioning and immunohistochemical analysis.
To test whether the compounds described herein act as S1PR2 antagonists in vivo, their effect was tested in BDL, a clinically relevant liver cholestasis model. The common bile duct was ligated and resected as described herein to cause biliary epithelial damage. One day post-surgery, mice were treated daily with 30 mg/kg of compound 29 or JTE-013:
In this double-blind mouse BDL study, the compounds were administered orally by gavage. […]

In data set [4] the target is T3, S1PR2 (Mus musculus, UniProt P52592).
T3 construct: Liver tissues were collected at necropsy, flash frozen, and pulverized; from tissue; host or cells: mouse liver (bile duct ligation model)
T3 sequence (P52592 whole entry): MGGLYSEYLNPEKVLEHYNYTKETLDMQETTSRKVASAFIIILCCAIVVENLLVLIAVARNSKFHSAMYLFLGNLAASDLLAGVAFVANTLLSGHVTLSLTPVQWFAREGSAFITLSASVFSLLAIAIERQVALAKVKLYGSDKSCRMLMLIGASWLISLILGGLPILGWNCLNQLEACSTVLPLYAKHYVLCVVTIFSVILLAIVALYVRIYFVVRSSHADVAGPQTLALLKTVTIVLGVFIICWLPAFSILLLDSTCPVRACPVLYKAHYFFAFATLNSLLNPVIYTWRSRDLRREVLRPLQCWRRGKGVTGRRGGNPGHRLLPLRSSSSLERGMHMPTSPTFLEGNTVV
The data set can be described thus: Immunoblot analysis of S1PR2 levels in liver tissue from mouse BDL study. It is filed as in vivo. The settings on record: 30 mg/kg daily, orally; liver at end of eight-day study (FIG. 3).
Description: Liver tissues were collected at necropsy, flash frozen, and pulverized. The powder was resuspended in RIPA lysis buffer with PI, NAF, and sodium deoxy cholate.
Liver samples collected in an identical manner from S1PR2 global KO and WT mice served as positive controls.

Data set [5] deals with BDL murine models of liver disease. The settings on record: multiple studies (Wang 2017; Yang 2015); cited from earlier work.
The test system of data set [6] is WT mice subjected to ischemia/reperfusion (I/R). The settings on record: I/R (Kim 2015); cited from earlier work.

The values that follow come from patent US11964960B2 (Cornell University, priority 2018, dated 2024).

Each structure is given as a SMILES string.

T2 sequence (O95136 whole entry, species assumed): as the sequence (O95136 whole entry) above

For `Cc1cc(C(=O)Cn2cc(C#N)ccc2=O)c(C)n1Cc1ccccc1` [CYM-5520], on S1PR2 [1], the “activity at the S1PR2 receptor” value was “weak allosteric agonist”. For the same compound, the aqueous solubility entry in data set [2] was “poor aqueous solubility”.
For `C#Cc1ccc(=O)n(CC(=O)c2cc(C)n(Cc3ccccc3)c2C)c1` [Compound 3, 1-(2-(1-benzyl-2,5-dimethyl-1H-pyrrol-3-yl)-2-oxoethyl)-5-ethynylpyridin-2(1H)-one], on S1P2, testing at 1 µM gave an inhibition of 69% and the half-inhibitory concentration (IC50) (usually the midpoint of a concentration-inhibition curve) came out at 134 nM. Further, at S1PR2 [3], the IC50 turned out to be 89 nM.
In the same order, the values of `Cc1c(C(=O)Cn2cc(Br)ccc2=O)cnn1Cc1ccccc1` [Compound 27, 1-(2-(1-benzyl-5-methyl-1H-pyrazol-4-yl)-2-oxoethyl)-5-bromopyridin-2(1H)-one] are 92%, 4.9 nM and 11 nM.
In the same order, the values of `C#Cc1ccc(=O)n(CC(=O)c2cnn(Cc3ccccc3)c2C)c1` [Compound 29, 1-(2-(1-benzyl-5-methyl-1H-pyrazol-4-yl)-2-oxoethyl)-5-ethynylpyridin-2(1H)-one] are 79%, 69 nM and 23 nM.
With `Cc1c(C(=O)Cn2cc(Br)ccc2=O)cnn1Cc1cccc(C(=O)O)c1` [Compound 32, 3-((4-(2-(5-bromo-2-oxopyridin-1(2H)-yl)acetyl)-5-methyl-1H-pyrazol-1-yl)methyl)benzoic acid], the inhibition (in general, the relative decrease from the control value, in per cent) at 1 µM against S1P2 is under 10%. Besides, the IC50 on S1PR2 [3] came out at 8700 nM.
In the same order, the values of `Cc1c(C(=O)Cn2cc(Br)ccc2=O)cnn1Cc1cccnc1` [Compound 33, 5-bromo-1-(2-(5-methyl-1-(pyridin-3-ylmethyl)-1H-pyrazol-4-yl)-2-oxoethyl)pyridin-2(1H)-one] are 14% and 5600 nM.
As for `C=Cc1ccc(=O)n(CC(=O)c2cnn(Cc3ccccc3)c2C)c1` [Compound 34, 1-(2-(1-benzyl-5-methyl-1H-pyrazol-4-yi)-2-oxoethyl)-5-vinylpyridin-2(1H)-one], on S1P2, the inhibition at 1 µM is 79% and the IC50 turned out to be 82 nM. The IC50 at S1PR2 [3] was found to be 150 nM.
At S1P2, `C#Cc1ccc(=O)n(CC(=O)c2cnn(Cc3cccnc3)c2C)c1` [Compound 35, 5-ethynyl-1-(2-(5-methyl-1-(pyridin-3-ylmethyl)-1H-pyrazol-4-yl)-2-oxoethyl)pyridin-2(1H)-one] had an inhibition at 1 µM of 69%. The IC50 on S1PR2 [3] was 386 nM.
The matching figures for `C#Cc1ccc(=O)n(CC(=O)c2cnn(Cc3cccc(C(=O)O)c3)c2C)c1` [Example 36, 3-((4-(2-(5-Ethynyl-2-oxopyridin-1(2H)-yl)acetyl)-5-methyl-1H-pyrazol-1-yl)methyl)benzoic Acid]: under 10% and 9800 nM.
Turning to `Cc1c(C(=O)Cn2ccc(Br)cc2=O)cnn1Cc1ccccc1` [Example 37, 1-(2-(1-Benzyl-5-methyl-1H-pyrazol-4-yl)-2-oxoethyl)-4-bromopyridin-2(1H)-one], testing at 1 µM on S1P2 gave an inhibition of 15%. For the same compound, the IC50 on S1PR2 [3] stood at 4400 nM.
In the same order, the values of `C#Cc1ccn(CC(=O)c2cnn(Cc3ccccc3)c2C)c(=O)c1` [Example 38] are 17% and 3600 nM.
In the same order, the values of `Cc1cc(Br)cn(CC(=O)c2cnn(Cc3ccccc3)c2C)c1=O` [Example 39, 1-(2-(1-Benzyl-5-methyl-1H-pyrazol-4-yl)-2-oxoethyl)-5-bromo-3-methylpyridin-2(1H)-one] are 69% and 364 nM.
In the same order, the values of `Cc1cc(=O)n(CC(=O)c2cnn(Cc3ccccc3)c2C)cc1Br` [Example 40, 1-(2-(1-Benzyl-5-methyl-1H-pyrazol-4-yl)-2-oxoethyl)-5-bromo-4-methylpyridin-2(1H)-one] are 67% and 395 nM.
In the case of `COc1cc(Br)cn(CC(=O)c2cnn(Cc3ccccc3)c2C)c1=O` [Example 41, 1-(2-(1-Benzyl-5-methyl-1H-pyrazol-4-yl)-2-oxoethyl)-5-bromo-3-methoxypyridin-2(1H)-one], testing at 1 µM against S1P2 gave an inhibition of 63%. The IC50 on S1PR2 [3] was found to be 694 nM.
The matching figures for `C#Cc1cc(C)c(=O)n(CC(=O)c2cnn(Cc3ccccc3)c2C)c1` [Example 42, 1-(2-(1-Benzyl-5-methyl-1H-pyrazol-4-yl)-2-oxoethyl)-5-ethynyl-3-methylpyridin-2(1H)-one]: 64% and 567 nM.
`C#Cc1ccc(=O)n(CC(=O)c2cnn(Cc3ccccc3)c2C)n1` [Example 43, 2-(2-(1-Benzyl-5-methyl-1H-pyrazol-4-yl)-2-oxoethyl)-6-ethynylpyridazin-3(2H)-one]: at S1P2, the inhibition at 1 µM is 70% and the midpoint of inhibition, the IC50, lay at 200 nM. In addition, on S1PR2 [3], the IC50 amounted to 297 nM.
Consider `Cc1nn(C)c2nc(NNC(=O)Nc3cc(Cl)nc(Cl)c3)cc(C(C)C)c12` [JTE-013], for which the “serum ALB levels” value with bile duct ligated mice (orally by gavage (FIG. 2C)) is “remained constant”. Moreover, the “survival / mortality post bile duct ligation” value with bile duct ligated mice (orally by gavage, from one day post-surgery, eight-day study (FIG. 1A)) is listed as “lower than that observed for the vehicle arm”. Moreover, on S1PR2 [4], the “S1PR2 levels in liver (immunoblot)” value is on record as “visible”. Also, the liver injury result in data set [5] is given as “protect against liver injury”. Further, in data set [6], the edema ratio result is listed as “dramatic decrease”, the infarct ratio entry is given as “dramatic decrease” and the neurological scores entry is “improved”.
